Results as given in ChEMBL document CHEMBL1141108, “Alkyl-substituted polyaminohydroxamic acids: a novel class of targeted histone deacetylase inhibitors” (J Med Chem, 2005).

Molecular target: Histone deacetylase
Assay: In vitro residual activity against Histone deacetylase (HDAC) at 1 uM concentration

Structure (SMILES)	residual activity [%]
O=C(CCCCC(=O)NCCCCN(Cc1ccccc1-c1ccccc1)Cc1ccccc1-c1ccccc1)NO	96.3
Br.O=C(CCCCC(=O)NCCCNCCCCNCCC(c1ccccc1)c1ccccc1)NO	80.2
Br.O=C(CCCCCCC(=O)NCCCNCCCCNCCC(c1ccccc1)c1ccccc1)NO	26.1
Br.CN(C)c1ccc(CN(CCCNCCCCN)C(=O)CCCCC(=O)NO)cc1	40
O=C(CCCCC(=O)NCCCCNCc1ccccc1-c1ccccc1)NO	83.7
Br.CC(C)(C)c1ccc(CNCCCCNCCCNC(=O)CCCCC(=O)O)cc1	98.5
Br.O=C(CCCCC(=O)NCCCNCCCNCCCNCCCNCC1CCCCCC1)NO	59

More lines, now with the values ahead:

residual activity [%]	Structure (SMILES)
50.6	Br.CC(C)(C)c1ccc(CNCCCCNCCCNC(=O)CCCCCCC(=O)NO)cc1
55.8	Cc1ccc(CNCCCCNC(=O)CCCCC(=O)NO)cc1
25.1	Br.CC(C)(C)c1ccc(CNCCCCNCCCNC(=O)CCCCC(=O)NO)cc1
66.1	CN(C)c1ccc(CNCCCCNC(=O)CCCCCCC(=O)NO)cc1.O=C(O)C(F)(F)F
89.7	CN(C)c1ccc(CNCCCCNC(=O)CCCCC(=O)NO)cc1.O=C(O)C(F)(F)F
46.8	Cc1ccc(CNCCCCNC(=O)CCCCCCC(=O)NO)cc1.O=C(O)C(F)(F)F
84.4	CN(C)c1ccc(CN(CCCCN)C(=O)CCCCCCC(=O)NO)cc1.O=C(O)C(F)(F)F
